Test results taken from patent US11752158B2 (priority 2007, dated 2023).
Where “and” joins values, the source holds several entries; their conditions need not be identical. Identical values can stand only once. Entries after “also recorded” stand apart in the source; their conditions may differ.

Key:
[1] = Serum metabolites of 25-hydroxyvitamin D3 and 25-hydroxyvitamin D2 (Example 1, FIG. 4 and 5); format: in vivo, rat
Experimental: (§1) The concentration of total 25-hydroxyvitamin D at 120 hours post initial dose was determined in serum samples using a high-performance liquid chromatographic method using tandem mass spectrometry detection. The method was utilized to determine the individual concentrations of 25-hydroxyvitamin D3 and 25-hydroxyvitamin D2 in serum and the total was determined as a sum of the concentrations. At 24 h post final dose, serum collected from animals was analyzed for changes in levels of 25-hydroxyvitamin D3, 25-hydroxyvitamin D2 and their metabolites.

[2] = system: patients with advanced prostate cancer; details: human, in vivo, po
Description: The efficacy and safety of an oral preparation of 25-hydroxyvitamin D2 is examined in a 3-month study of patients with advanced prostate cancer being treated with high-dose calcitriol once per week. For this study, 25-hydroxyvitamin D2 was formulated in soft-gelatin capsules. Forty patients with advanced prostate cancer undergoing treatment with high-dose calcitriol and Docetaxel were divided into two equal groups. Along with weekly calcitriol doses, group #1 receives between 2-20 mcg 25-hydroxyvitamin D2, while group #2 receives placebo. Prior to enrolling, all subjects provide two fasting morning blood samples, separated by at least one week, to establish pre-treatment baseline values of serum calcium, plasma intact PTH, and serum 25-hydroxyvitamin D. Additional fasting blood samples and 24-hour urine collections are obtained from each subject 24 h following the administration of the weekly administration of calcitriol for determination of serum calcium and serum 25-hydroxyvitamin D. Throughout the study, all subjects adhere to a daily intake of approximately 1,000 to 1,500 mg of elemental calcium (from self-selected diets and calcium supplements, as needed) under the ongoing guidance of a dietician. At the conclusion of the study, the laboratory data are analyzed by treatment group and by test formulation after appropriate correction for baseline values.

[3] = system: patients with end-stage renal disease (ESRD); test: Serum calcium in end-stage renal disease patients on hemodialysis (Example 4); format: in vivo, human; details: i.v. thrice weekly
Experimental: (§2) The formulations examined in this study are aqueous isotonic and sterile solutions containing either 20 mcg of 25-hydroxyvitamin D3 alone (test preparation #1) or in combination with 10 mcg 25-hydroxyvitamin D2 (test preparation #2). A total of 75 […] Caucasian, Asian, Hispanic and African-American subjects participate in this study, all of whom are at least 4-months on regular hemodialysis and have serum 25-hydroxyvitamin D levels below 15 ng/mL. Prior to enrolling, all subjects provide two fasting morning blood samples, separated by at least one week, to establish pre-treatment baseline values of serum calcium, plasma intact PTH, and serum 25-hydroxyvitamin D. On the morning of Day 1, the subjects are randomly assigned to one of three treatment groups, and they begin thrice weekly dosing with the test preparation #1 or #2, or with a matching placebo. All dosing occurs during regularly scheduled hemodialysis sessions and is accomplished by gradual injection (over a period of 1 to 5 minutes) into the blood exiting from the hemodialysis machine. […] At the conclusion of the study, the laboratory data are analyzed by treatment group and by test formulation after appropriate correction for baseline values. […]

male Sprague-Dawley rats [4] = test: Serum calcium levels after 5-day i.v. dosing (Example 1, FIG. 2); format: in vivo, rat; details: Group 11: 6 μg/kg 25-hydroxyvitamin D3 alone, 5 day treatment period
Experimental: (§3) To examine the reduction of toxicity associated with the co-administration of 25-hydroxyvitamin D3 with 25-hydroxyvitamin D2 compared to 25-hydroxyvitamin D3 alone, 90 male Sprague-Dawley rats are treated intravenously for five consecutive days with various combinations of 25-hydroxyvitamin D3 and 25-hydroxyvitamin D2. One day prior to the initiation of the study, rats are randomly selected, assigned to groups and treated as follows in Table 3:
(§4) For each day's treatment of each animal, the appropriate material was administered i.v. Daily treatments were performed within a 3 hours window on each day. On the first day of treatment (pre-dose) and at 24 hours time points on day 2 before the second dose administration (0 being the time of the first injection), blood (˜1 mL) was collected from the jugular vein catheter from animals in Group 1 to 15 into unpreserved tubes. The serum was separated out, transferred into new tubes that were immediately frozen at approximately −80° C. Prior to the sacrifice of all animals at 120 hours on Day 6 blood (˜2 mL) was collected into unpreserved tubes from the jugular vein catheter from all animals. […] For each animal, the necropsy consisted of an external examination, including reference to all clinically recorded lesions, as well as internal “abbreviated” examinations.

[5] = Serum 25-hydroxyvitamin D in end-stage renal disease patients on hemodialysis (Example 4); format: in vivo, human; details: i.v. thrice weekly, 20 mcg 25-hydroxyvitamin D3 alone or with 10 mcg 25-hydroxyvitamin D2; first 3 months of dosing, steady state thereafter
Experimental: as §2

[6] = Total serum 25-hydroxyvitamin D by LC-MS/MS (Example 1, FIG. 1); format: in vivo, rat; details: indicated dosing, daily for a period of 5 days; 120 hours post initial dose
Experimental: as §3, §1

male Sprague-Dawley rats [7] = test: Gross necropsy after 5-day i.v. dosing (Example 1); format: in vivo, rat; details: i.v. once a day for 5 days
Experimental: as §3, §4

male Sprague-Dawley rats [8] = test: Serum calcium levels at day 5 (Example 2, FIG. 6); format: in vivo, rat; details: i.v. once a day for 5 days
Experimental: Another study was carried out to assess the effects of co-administration of 25-hydroxyvitamin D with 25-hydroxyvitamin D2 compared to 25-hydroxyvitamin D3 alone on 102 male Sprague-Dawley rats. Rats about […], about 175-250 g in weight, were divided into groups of six males each. The groups were administered various combinations of 25-hydroxyvitamin D3 and 25-hydroxyvitamin D2 intravenously (or the same volume of control vehicle) once daily via the jugular vein catheter, for five consecutive days, according to Table 5 below.
Dosing was carried out at similar times each day, within a three hour window of the time of last dose. Blood was collected at day 0 (the first day of treatment) for analysis, and animals were monitored twice daily. Animals from all groups were euthanized on day 5, 24 hours after the last dose, and blood was collected by cardiac puncture. All rats were subjected to an abbreviated necropsy.

| Structure (SMILES) | metabolism / catabolism of the prohormone ([1]; rat, in vivo) | episodes of hypercalcemia (serum calcium above 10.2 mg/dL) [2] | mean serum calcium ([3]; 20 mcg 25-hydroxyvitamin D3 alone or with 10 mcg 25-hydroxyvitamin D2, 3-month study) | episodes of hypercalcemia (serum calcium above 10.2 mg/dL) ([3]; 20 mcg 25-hydroxyvitamin D3 alone, 3-month study) | serum calcium levels (male Sprague-Dawley rats [4]) | metabolism / catabolism of the prohormone ([1]; observation in rats, serum 24 h post final dose) | serum 25-hydroxyvitamin D levels [5] | total serum 25-hydroxyvitamin D [6] | Gross Necropsy Findings (male Sprague-Dawley rats [7]; Group 6: 25-hydroxyvitamin D2 0 μg/kg, 25-hydroxyvitamin D3 0.3 μg/kg) | Gross Necropsy Findings (male Sprague-Dawley rats [7]; Group 11: 25-hydroxyvitamin D2 0 μg/kg, 25-hydroxyvitamin D3 6 μg/kg) | Serum calcium levels at day 5 (male Sprague-Dawley rats [8]; 4 μg/kg 25-hydroxyvitamin D3 alone) | Serum calcium levels at day 5 (male Sprague-Dawley rats [8]; 8 μg/kg 25-hydroxyvitamin D3 alone) |
| --- | --- | --- | --- | --- | --- | --- | --- | --- | --- | --- | --- | --- |
| C=C1CC[C@H](O)C/C1=C/C=C1\CCC[C@]2(C)[C@@H]([C@H](C)/C=C/[C@H](C)C(C)(C)O)CC[C@@H]12 [25-hydroxyvitamin D2] | catabolized more readily to 24, 25-dihydroxyvitamin D2 | more frequently observed in the placebo group than in the treatment group |  |  |  |  |  |  |  |  |  |  |
| C=C1CC[C@H](O)C/C1=C/C=C1\CCC[C@]2(C)[C@@H]([C@H](C)CCCC(C)(C)O)CC[C@@H]12 [25-hydroxyvitamin D3] |  |  | increase significantly from baseline | more frequently observed | highest achieved level of serum calcium; also recorded: hypercalcemia | catabolized more readily to the active 1,25-dihydroxyvitamin D3 form | progressively increasing | elevation | None | Severe signs of toxicity (blood in the lungs) and 4 of 6 animals treated exhibiting blood in lung tissue and 4/6 animals had | hypercalcemia | hypercalcemia |
